Tests used:
[1] = biological target: T1, strychnine insensitive glycine binding site located on the NMDA receptor complex (Rattus norvegicus, UniProt P35439); test: affinity for strychnine insensitive glycine binding site (procedure of Kishimoto H. et al.); conditions: procedure of Kishimoto H. et al. J. Neurochem 1981, 37, 1015-1024
T1 construct: from tissue
Protocol: The potent and selective action of the compounds of the invention at the strychnine- insensitive glycine binding site present on the NMDA receptor complex may be readily determined using conventional test procedures. Thus the ability to bind at the strychnine insensitive glycine binding site was determined using the procedure of Kishimoto H et al. J Neurochem 1981, 37 1015-1024. The selectivity of the action of compounds of the invention for the strychnine insensitive glycine site was confirmed in studies at other ionotropic known excitatory amino acid receptors.
The affinity of the compound of the invention for strychnine insensitvie glycine binding site was determined using the procedure of Kishimoto H. et al J. Neurochem 1981, 37, 1015-1024.

[2] = system: NMDA induced convulsions; test: inhibition of NMDA induced convulsions in mice (procedure of Chiamulera C et al.); type: in vivo; conditions: mouse; iv administration; intracerebroventricular injection of NMDA; read-out: ED50 (dose required to protect 50% of the animals from the convulsive action of NMDA)
Protocol: The ability of compounds of the invention to inhibit NMDA included convulsions in the mouse was determined using the procedure of Chiamulera C et al. Psychopharmacology 1990, 102, 551-552. In this test the ability of the compound to inhibit the generalized seizures induced by an intracerebroventricular injection of NMDA in mice was examined at a number of dose levels. […] This expressed as mg/kg is referred to as the ED50 value.

Row | SMILES | pKi [1] | ED50 [2] [mg/kg]
1 | O=C(/C=C/c1c(C(=O)O)[nH]c2cc(Cl)cc(Cl)c12)Nc1ccccc1O [Example 2e, (E) 3-[2-(2-Hydroxyphenylaminocarbonyl)ethenyl]-4,6-dichloroindole-2-carboxylic acid] | 8.4 | –
2 | COc1ccc(NC(=O)/C=C/c2c(C(=O)O)[nH]c3cc(Cl)cc(Cl)c23)cc1OC [Example 2f, (E) 3-[2-(3,4-Dimethoxyphenylaminocarbonyl)ethenyl]-4,6-dichloroindole-2-carboxylic acid] | 8.1 | 0.3
3 | CCOc1ccc(NC(=O)/C=C/c2c(C(=O)O)[nH]c3cc(Cl)cc(Cl)c23)cc1 [Example 2g, (E) 3-[2(4-Ethoxyphenylaminocarbonyl)ethenyl]-4,6-dichloroindole-2-carboxylic acid] | 8.3 | 0.1
4 | O=C(/C=C/c1c(C(=O)O)[nH]c2cc(Cl)cc(Cl)c12)Nc1ccc(F)cc1F [Example 2h, (E) 3-[2-(2,4-Difluorophenylaminocarbonyl)ethenyl]-4,6-dichloroindole-2-carboxylic acid] | 8.3 | 0.3
5 | O=C(/C=C/c1c(C(=O)O)[nH]c2cc(Cl)cc(Cl)c12)Nc1cc([N+](=O)[O-])ccc1O [Example 2i] | 8.0 | –

Reference: patent US5374649A, “Indole derivatives and pharmaceutical use thereof” (Glaxo S.p.A., priority 1992, dated 1994)
